{"source": "patent US4559346A", "about": "“Certain N-octahydro-indolizinebenzamides and their use in treating psychosis, cardiac arrhythmia and hypertension” (Beecham Group p.l.c., priority 1982, dated 1985)", "test_system": "post-synaptic Dopamine (D.A.) receptors", "test": "Inhibition of apomorphine induced climbing in the mouse", "assay_type": "in vivo", "conditions": "male CDI mice, p.o., 1/2 hour post dosing, apomorphine 1 mg/kg s.c.; for ED50 (dose for 50% inhibition of apomorphine-induced climbing): 30 min; for ED50: Mus musculus, po, 0.5 h, read-out: ED50 (dose for 50% inhibition of apomorphine-induced climbing)", "protocol": "Inhibition of apomorphine induced climbing in the mouse\nThe test is based on that described by Protais, P., Constantin, J. and Schwartz J. C.\nWhen mice are given a dose of 1 mg/kg apomorphine and then placed in an enclosed environment, such as an inverted wire cage, they are seen to climb around the walls. This behavioural phenomenon is thought to be a consequence of the stimulation of post-synaptic Dopamine (D.A.) receptors in the nucleus accumbens. Inhibition of apomorphine induced climbing is therefore indicative of post-synaptic D.A. receptor blockade in the accumbens.\nGroups of 10 male CDI mice, weighing 25-30 g were pretreated orally with either graded doses of the test compound or vehicle, at appropriate time intervals before the subcutaneous administration of a sub-maximal dose of apomorphine (1 mg/kg). Immediately after the apomorphine injection the mice were placed in wire `climbing cages` and each animal was scored for climbing behavour at 10 and 20 minutes post apomorphine as follows:\nFour paws on cage floor=0\nThe total score was calculated for each group of mice and expressed as a percentage inhibition of climbing.\nTotal score for apomorphine control"}
{"compound": "COc1cc(N)c(Cl)cc1C(=O)NC1CCN2CC(C)(c3ccccc3)CCC12", "note": "(racemic) [2 (c), (±) 4-Amino-5-chloro-2-methoxy-N-[7'β-[3'-methyl-3'-phenyl-1'-aza-5'αH-bicyclo[4,3,0]nonyl)]benzamide]", "values": [{"measurement": "ED50 (dose for 50% inhibition of apomorphine-induced climbing)", "result": 0.48, "unit": "mg/kg p.o."}]}
{"compound": "COc1cc(N)c(Cl)cc1C(=O)N[C@H]1CCN2C[C@@H](c3ccccc3)C[C@H]2C1", "note": "(relative stereo) [2 (a), (±) 4-Amino-5-chloro-2-methoxy-N-[7'β-(3'β-phenyl-1'-aza-5'αH-bicyclo[4,3,0]nonyl)]benzamide]", "values": [{"measurement": "ED50", "result": 0.235, "unit": "mg/kg"}]}
{"compound": "COc1cc(N)c(Cl)cc1C(=O)N[C@H]1CCN2C[C@@H](c3ccc(F)cc3)C[C@H]2C1", "note": "(relative stereo) [2 (b), (±) 4-Amino-5-chloro-2-methoxy-N-[7'β-(3'β-p-fluorophenyl-1'-aza-5'αH-bicyclo[4,3,0]nonyl)]benzamide]", "values": [{"measurement": "ED50", "result": 0.195, "unit": "mg/kg"}]}
{"compound": "(±) 4-Amino-5-chloro-2-methoxy-N-(7'β-[3'-o-fluorophenyl-1'-aza-5'αH-bicyclo[4,3,0]nonyl)]benzamide [2 (d)]", "values": [{"measurement": "ED50 (dose for 50% inhibition of apomorphine-induced climbing)", "result": 0.52, "unit": "mg/kg p.o."}]}
